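These data come from cells grown in 96-well plates and exposed to compound for 48 hours at five concentrations. GI50 is the concentration that inhibits growth by half.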 Calls of active or inactive are those of the source. No stated cut-off is given here; in the data, active = GI50 up to about 1.1 µM and inactive = higher.
How the values were obtained:
Experiment in all cases: inhibition of tumour cell growth, NCI panel, 48 h
A498 = test system: A498
ACHN = test system: ACHN
DLD-1 = test system: DLD-1
HOP-18 = test system: HOP-18
HOP-62 = test system: HOP-62
KM-20L2 = test system: KM-20L2
KM12 = test system: KM12
LXFL 529 = test system: LXFL 529
M19-MEL = test system: M19-MEL
Malme-3M = test system: Malme-3M
NCI-H460 = test system: NCI-H460
SF-539 = test system: SF-539
SW-620 = test system: SW-620
TK-10 = test system: TK-10
BT-549 = test system: BT-549
PC-3 = test system: PC-3
RXF 393 = test system: RXF 393
SR = test system: SR

Structure (SMILES)	GI50 (A498)	GI50 (ACHN)	GI50 (DLD-1)	GI50 (HOP-18)	GI50 (HOP-62)	GI50 (KM-20L2)	GI50 (KM12)	GI50 (LXFL 529)	GI50 (M19-MEL)	GI50 (Malme-3M)	GI50 (NCI-H460)	GI50 (SF-539)	GI50 (SW-620)	GI50 (TK-10)	GI50 (BT-549)	GI50 (PC-3)	GI50 (RXF 393)	GI50 (SR)
CN(C)c1ccc(/C=C2\N=C(c3ccc(N)cc3)OC2=O)cc1	> 100 µM (inactive)	> 100 µM (inactive)	> 100 µM (inactive)	> 100 µM (inactive)	> 100 µM (inactive)	> 100 µM (inactive)	> 100 µM (inactive)	> 100 µM (inactive)	> 100 µM (inactive)	> 100 µM (inactive)	> 100 µM (inactive)	> 100 µM (inactive)	> 100 µM (inactive)	> 100 µM (inactive)	–	–	–	–
C=C1C(=O)OC2CC(C)C3C=CC(=O)C3CC12 (configuration not stated)	11.5 µM (inactive)	3.08 µM (inactive)	–	5.77 µM (inactive)	15.9 µM (inactive)	3.52 µM (inactive)	5.64 µM (inactive)	1.26 µM (inactive)	2.72 µM (inactive)	2.05 µM (inactive)	2.96 µM (inactive)	2.08 µM (inactive)	0.998 µM (active)	3.16 µM (inactive)	2.64 µM (inactive)	2.37 µM (inactive)	1.53 µM (inactive)	0.824 µM (active)
CCOC(=O)NC1C2CC(=O)C(O2)C1OCc1ccccc1 (configuration not stated)	> 100 µM (inactive)	> 100 µM (inactive)	> 100 µM (inactive)	> 100 µM (inactive)	> 100 µM (inactive)	> 100 µM (inactive)	> 100 µM (inactive)	> 100 µM (inactive)	> 100 µM (inactive)	> 100 µM (inactive)	> 100 µM (inactive)	> 100 µM (inactive)	> 100 µM (inactive)	–	–	–	> 100 µM (inactive)	–
Nc1nc(=O)n(CC(O)CO)s1 (configuration not stated)	> 100 µM (inactive)	> 100 µM (inactive)	> 100 µM (inactive)	> 100 µM (inactive)	> 100 µM (inactive)	> 100 µM (inactive)	–	> 100 µM (inactive)	> 100 µM (inactive)	> 100 µM (inactive)	> 100 µM (inactive)	> 100 µM (inactive)	> 100 µM (inactive)	> 100 µM (inactive)	–	–	> 100 µM (inactive)	> 100 µM (inactive)
COC(=O)C(CC(=O)c1ccccc1)c1ccccc1NC(C)=O (configuration not stated)	> 100 µM (inactive)	> 100 µM (inactive)	> 100 µM (inactive)	> 100 µM (inactive)	> 100 µM (inactive)	> 100 µM (inactive)	> 100 µM (inactive)	> 100 µM (inactive)	> 100 µM (inactive)	> 100 µM (inactive)	> 100 µM (inactive)	> 100 µM (inactive)	> 100 µM (inactive)	> 100 µM (inactive)	–	–	–	> 100 µM (inactive)
CCCC(=O)c1c(NOC2OCC(OC(C)=O)C(OC(C)=O)C2OC(C)=O)nc(OC)n(C)c1=O (configuration not stated)	> 100 µM (inactive)	> 100 µM (inactive)	> 100 µM (inactive)	> 100 µM (inactive)	> 100 µM (inactive)	> 100 µM (inactive)	> 100 µM (inactive)	> 100 µM (inactive)	> 100 µM (inactive)	> 100 µM (inactive)	> 100 µM (inactive)	> 100 µM (inactive)	> 100 µM (inactive)	> 100 µM (inactive)	–	–	> 100 µM (inactive)	> 100 µM (inactive)
COc1ccc(OC)c2c(C(=O)O)c(Cc3ccccc3)ccc12	> 100 µM (inactive)	> 100 µM (inactive)	> 100 µM (inactive)	> 100 µM (inactive)	> 100 µM (inactive)	> 100 µM (inactive)	> 100 µM (inactive)	> 100 µM (inactive)	> 100 µM (inactive)	> 100 µM (inactive)	> 100 µM (inactive)	–	> 100 µM (inactive)	> 100 µM (inactive)	–	–	> 100 µM (inactive)	> 100 µM (inactive)
[O-][S+]1c2ccccc2NC(c2ccc3ccccc3c2)CC1c1ccccc1 (configuration not stated)	–	20.8 µM (inactive)	23.3 µM (inactive)	> 100 µM (inactive)	40.6 µM (inactive)	22.9 µM (inactive)	16.7 µM (inactive)	15.7 µM (inactive)	20.9 µM (inactive)	61.5 µM (inactive)	19.5 µM (inactive)	20 µM (inactive)	20 µM (inactive)	35.4 µM (inactive)	–	–	14.8 µM (inactive)	–
Cc1cnc(SCCN2CCN(C)CC2)nc1-c1cc2ccccc2s1	15.3 µM (inactive)	–	12.6 µM (inactive)	< 0.01 µM (active)	0.155 µM (active)	–	16.3 µM (inactive)	13.8 µM (inactive)	–	17 µM (inactive)	3.51 µM (inactive)	12.6 µM (inactive)	11.9 µM (inactive)	17.4 µM (inactive)	–	–	10.1 µM (inactive)	2.48 µM (inactive)
CC(=O)Nc1ccc(/C=c2\sc3nnc(CCC(=O)Nc4ccccc4Cl)n3c2=O)cc1	–	> 100 µM (inactive)	32.4 µM (inactive)	52.8 µM (inactive)	54 µM (inactive)	–	20.9 µM (inactive)	30 µM (inactive)	37.4 µM (inactive)	38.8 µM (inactive)	> 10 µM (inactive)	23.5 µM (inactive)	27 µM (inactive)	37.8 µM (inactive)	–	–	27.3 µM (inactive)	20.3 µM (inactive)
O=C(O)CC(O)(c1ccccc1C(=O)O)c1cccc2ccccc12 (configuration not stated)	> 100 µM (inactive)	> 100 µM (inactive)	> 100 µM (inactive)	> 100 µM (inactive)	> 100 µM (inactive)	–	> 100 µM (inactive)	> 100 µM (inactive)	> 100 µM (inactive)	> 100 µM (inactive)	> 100 µM (inactive)	> 100 µM (inactive)	> 100 µM (inactive)	> 100 µM (inactive)	–	–	> 100 µM (inactive)	> 100 µM (inactive)
CCCCCCCCCCCCOC(=S)NC	18.1 µM (inactive)	20 µM (inactive)	17.1 µM (inactive)	19 µM (inactive)	22.2 µM (inactive)	19.4 µM (inactive)	14.3 µM (inactive)	17 µM (inactive)	–	21.6 µM (inactive)	18.5 µM (inactive)	18.2 µM (inactive)	18.3 µM (inactive)	12.8 µM (inactive)	–	–	16.6 µM (inactive)	14.1 µM (inactive)
C=CCOCCCC(=O)C(=[N+]=[N-])C(=O)OC	> 100 µM (inactive)	> 100 µM (inactive)	> 100 µM (inactive)	> 100 µM (inactive)	–	> 100 µM (inactive)	> 100 µM (inactive)	> 100 µM (inactive)	> 100 µM (inactive)	> 100 µM (inactive)	> 100 µM (inactive)	> 100 µM (inactive)	> 100 µM (inactive)	> 100 µM (inactive)	–	–	> 100 µM (inactive)	> 100 µM (inactive)

Reference: ChEMBL document CHEMBL1201862, “PubChem BioAssay data set” (2004)
